Test in all cases: Kinase selectivity, scanMAX Kinase assay panel (DiscoverX), % control at 1 uM
Common to all, as to type: binding

Assay [1] addresses T1, scanMAX Kinase assay panel (Homo sapiens, UniProt P49840).
T1 construct: purchased DiscoverX
To be noted: GSK3A; 1 uM; read-out: Percent Control (%). The essentials: (§1)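 Binding across the scanMAX kinase panel was tested at 1 uM compound. % control = (compound − positive control)/(negative control − positive control) × 100; below 35 counted as active.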

In assay [2] the target is T2, scanMAX Kinase assay panel (Homo sapiens, UniProt P36888, K663Q).
T2 construct: purchased DiscoverX
T2 sequence (P36888 27-993 K663Q): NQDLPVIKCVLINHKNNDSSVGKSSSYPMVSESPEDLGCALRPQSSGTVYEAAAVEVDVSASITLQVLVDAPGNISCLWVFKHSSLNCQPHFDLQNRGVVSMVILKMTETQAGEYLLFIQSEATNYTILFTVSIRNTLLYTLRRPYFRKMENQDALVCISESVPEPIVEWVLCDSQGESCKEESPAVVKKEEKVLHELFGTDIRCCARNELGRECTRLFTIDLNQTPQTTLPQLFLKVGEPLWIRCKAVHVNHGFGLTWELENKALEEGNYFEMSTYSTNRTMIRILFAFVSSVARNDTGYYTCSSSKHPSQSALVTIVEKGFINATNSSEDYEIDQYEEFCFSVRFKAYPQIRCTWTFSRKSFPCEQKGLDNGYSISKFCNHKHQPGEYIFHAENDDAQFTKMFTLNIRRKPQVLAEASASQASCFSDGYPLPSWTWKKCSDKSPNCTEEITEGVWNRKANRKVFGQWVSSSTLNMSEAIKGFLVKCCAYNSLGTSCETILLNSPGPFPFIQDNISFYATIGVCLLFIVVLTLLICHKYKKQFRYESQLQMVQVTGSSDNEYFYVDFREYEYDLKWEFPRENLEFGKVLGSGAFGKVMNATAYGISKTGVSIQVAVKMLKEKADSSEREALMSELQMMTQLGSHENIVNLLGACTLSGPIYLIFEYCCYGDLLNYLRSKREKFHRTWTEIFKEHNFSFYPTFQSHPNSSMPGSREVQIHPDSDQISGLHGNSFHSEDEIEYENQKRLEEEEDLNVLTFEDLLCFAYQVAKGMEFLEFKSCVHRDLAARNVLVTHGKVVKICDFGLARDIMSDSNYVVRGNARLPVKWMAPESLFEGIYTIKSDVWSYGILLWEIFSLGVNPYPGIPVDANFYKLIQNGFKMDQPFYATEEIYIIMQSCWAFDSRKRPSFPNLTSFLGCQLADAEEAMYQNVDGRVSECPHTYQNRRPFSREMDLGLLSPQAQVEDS
To be noted: FLT3 (K663Q); 1 uM; read-out: Percent Control (%). An outline of the steps:
as §1

In assay [3] the target is T3, scanMAX Kinase assay panel (Homo sapiens, UniProt P00533, L861Q).
T3 construct: purchased DiscoverX
As to conditions: EGFR (L861Q); 1 uM; read-out: Percent Control (%). The essentials: as §1

The target of assay [4] is T4, scanMAX Kinase assay panel (Homo sapiens, UniProt O75747).
T4 construct: purchased DiscoverX
T4 sequence (O75747 1-1486): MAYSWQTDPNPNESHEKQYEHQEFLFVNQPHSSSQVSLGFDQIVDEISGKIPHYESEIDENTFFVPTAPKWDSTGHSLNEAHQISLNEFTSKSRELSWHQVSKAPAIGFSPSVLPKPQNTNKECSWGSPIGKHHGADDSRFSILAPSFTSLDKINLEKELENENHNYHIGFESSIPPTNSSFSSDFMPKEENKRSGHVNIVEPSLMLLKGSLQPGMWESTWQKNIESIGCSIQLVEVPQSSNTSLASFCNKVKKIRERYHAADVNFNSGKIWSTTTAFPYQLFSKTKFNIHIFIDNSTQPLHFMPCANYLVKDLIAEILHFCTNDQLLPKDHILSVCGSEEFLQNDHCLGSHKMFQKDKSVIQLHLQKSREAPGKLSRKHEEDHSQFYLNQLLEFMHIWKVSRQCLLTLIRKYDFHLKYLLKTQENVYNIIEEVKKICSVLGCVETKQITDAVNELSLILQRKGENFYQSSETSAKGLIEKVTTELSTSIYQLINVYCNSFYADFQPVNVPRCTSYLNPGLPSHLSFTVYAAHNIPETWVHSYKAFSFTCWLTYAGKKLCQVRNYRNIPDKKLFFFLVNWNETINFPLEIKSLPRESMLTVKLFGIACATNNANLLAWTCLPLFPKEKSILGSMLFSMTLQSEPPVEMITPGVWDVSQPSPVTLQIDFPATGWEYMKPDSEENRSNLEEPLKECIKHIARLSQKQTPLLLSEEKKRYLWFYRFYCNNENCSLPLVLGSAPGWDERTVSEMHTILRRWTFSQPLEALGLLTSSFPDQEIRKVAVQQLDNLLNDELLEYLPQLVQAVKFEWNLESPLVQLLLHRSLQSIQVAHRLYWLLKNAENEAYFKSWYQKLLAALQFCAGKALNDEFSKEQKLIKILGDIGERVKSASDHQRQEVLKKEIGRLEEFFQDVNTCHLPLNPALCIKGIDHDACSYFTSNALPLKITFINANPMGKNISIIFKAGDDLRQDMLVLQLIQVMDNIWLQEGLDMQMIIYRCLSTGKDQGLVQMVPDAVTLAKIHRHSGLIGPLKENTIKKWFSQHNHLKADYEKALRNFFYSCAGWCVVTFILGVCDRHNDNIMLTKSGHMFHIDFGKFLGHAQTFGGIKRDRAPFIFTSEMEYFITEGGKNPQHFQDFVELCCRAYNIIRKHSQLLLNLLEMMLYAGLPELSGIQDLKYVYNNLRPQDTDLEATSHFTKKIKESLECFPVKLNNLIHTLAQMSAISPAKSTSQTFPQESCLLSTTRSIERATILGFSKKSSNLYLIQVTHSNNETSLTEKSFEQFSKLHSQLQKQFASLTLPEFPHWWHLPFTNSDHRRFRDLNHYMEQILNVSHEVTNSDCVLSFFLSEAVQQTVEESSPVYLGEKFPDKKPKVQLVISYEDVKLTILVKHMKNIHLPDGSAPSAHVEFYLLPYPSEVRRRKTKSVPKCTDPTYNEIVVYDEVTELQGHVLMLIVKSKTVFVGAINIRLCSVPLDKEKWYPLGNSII
As to conditions: PIK3C2G; 1 uM; read-out: Percent Control (%). An outline of the steps: as §1

In assay [5] the target is T5, scanMAX Kinase assay panel (Homo sapiens, UniProt P49760).
T5 construct: purchased DiscoverX
As to conditions: CLK2; 1 uM; read-out: Percent Control (%). An outline of the steps: as §1

T1 sequence (P49840 whole entry): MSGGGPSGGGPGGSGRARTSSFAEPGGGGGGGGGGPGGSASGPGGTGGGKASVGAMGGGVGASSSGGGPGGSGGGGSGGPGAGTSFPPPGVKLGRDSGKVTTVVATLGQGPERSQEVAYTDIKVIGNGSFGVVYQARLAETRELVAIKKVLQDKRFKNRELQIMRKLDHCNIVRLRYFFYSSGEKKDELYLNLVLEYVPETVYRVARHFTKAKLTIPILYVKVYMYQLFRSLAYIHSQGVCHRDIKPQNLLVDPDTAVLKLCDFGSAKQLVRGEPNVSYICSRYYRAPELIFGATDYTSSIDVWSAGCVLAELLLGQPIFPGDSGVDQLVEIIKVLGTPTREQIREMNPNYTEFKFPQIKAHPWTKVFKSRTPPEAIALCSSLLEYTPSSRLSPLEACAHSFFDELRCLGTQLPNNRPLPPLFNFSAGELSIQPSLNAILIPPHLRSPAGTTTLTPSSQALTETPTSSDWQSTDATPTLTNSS
T5 sequence (P49760 whole entry): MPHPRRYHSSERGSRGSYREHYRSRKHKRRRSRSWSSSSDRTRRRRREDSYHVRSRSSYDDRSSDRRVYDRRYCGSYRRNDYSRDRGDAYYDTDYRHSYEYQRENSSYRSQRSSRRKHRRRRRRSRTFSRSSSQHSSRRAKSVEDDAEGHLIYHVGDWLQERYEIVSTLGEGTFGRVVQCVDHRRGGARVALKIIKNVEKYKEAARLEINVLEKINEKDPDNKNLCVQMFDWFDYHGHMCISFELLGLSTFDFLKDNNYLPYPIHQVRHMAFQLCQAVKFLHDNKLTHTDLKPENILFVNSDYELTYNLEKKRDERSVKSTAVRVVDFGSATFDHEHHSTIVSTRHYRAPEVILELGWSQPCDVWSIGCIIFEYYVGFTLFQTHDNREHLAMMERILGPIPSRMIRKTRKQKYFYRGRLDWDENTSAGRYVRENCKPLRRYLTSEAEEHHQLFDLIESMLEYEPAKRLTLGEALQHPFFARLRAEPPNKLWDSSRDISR
T3 sequence (P00533 25-1210 L861Q): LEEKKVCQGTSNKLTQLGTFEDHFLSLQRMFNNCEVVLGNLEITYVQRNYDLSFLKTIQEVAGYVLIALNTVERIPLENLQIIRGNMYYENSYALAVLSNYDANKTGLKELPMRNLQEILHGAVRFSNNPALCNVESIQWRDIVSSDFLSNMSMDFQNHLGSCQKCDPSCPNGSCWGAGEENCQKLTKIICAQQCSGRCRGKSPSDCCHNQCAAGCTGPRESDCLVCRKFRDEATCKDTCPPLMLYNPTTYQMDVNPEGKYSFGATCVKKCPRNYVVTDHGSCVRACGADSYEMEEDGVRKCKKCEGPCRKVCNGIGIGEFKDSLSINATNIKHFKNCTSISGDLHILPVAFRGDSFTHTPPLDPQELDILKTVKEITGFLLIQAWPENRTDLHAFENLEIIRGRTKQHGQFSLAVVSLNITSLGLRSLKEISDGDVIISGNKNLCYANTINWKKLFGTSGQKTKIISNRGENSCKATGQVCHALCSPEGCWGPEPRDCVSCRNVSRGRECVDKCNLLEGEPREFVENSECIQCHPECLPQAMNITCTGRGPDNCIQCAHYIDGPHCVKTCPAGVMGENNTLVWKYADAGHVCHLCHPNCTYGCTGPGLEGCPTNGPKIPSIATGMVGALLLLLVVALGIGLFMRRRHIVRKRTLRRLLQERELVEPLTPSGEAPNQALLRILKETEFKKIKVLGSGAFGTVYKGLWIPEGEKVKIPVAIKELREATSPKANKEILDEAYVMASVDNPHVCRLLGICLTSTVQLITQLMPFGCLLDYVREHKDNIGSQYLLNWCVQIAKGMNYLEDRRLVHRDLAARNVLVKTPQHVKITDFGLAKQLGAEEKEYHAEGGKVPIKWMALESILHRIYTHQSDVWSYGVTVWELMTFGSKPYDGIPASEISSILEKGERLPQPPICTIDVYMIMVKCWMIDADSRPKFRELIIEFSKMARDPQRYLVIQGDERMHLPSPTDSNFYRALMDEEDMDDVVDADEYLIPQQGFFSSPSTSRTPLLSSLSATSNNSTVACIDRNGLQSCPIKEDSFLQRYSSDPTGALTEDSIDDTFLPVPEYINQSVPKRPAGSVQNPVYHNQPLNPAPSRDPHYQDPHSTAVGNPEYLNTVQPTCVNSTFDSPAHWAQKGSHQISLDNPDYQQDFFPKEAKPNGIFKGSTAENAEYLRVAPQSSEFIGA

`Cc1ccc(C(=O)Nc2ccc(CN3CCN(C)CC3)c(C(F)(F)F)c2)cc1C#Cc1cnc2c(Nc3cnn(C)c3)cccn12` [Example 1, 4-methyl-3-((8-((1-methyl-1H-pyrazol-4-yl)amino)imidazo[1,2-a]pyridin-3-yl)ethynyl)-N-(4-((4-methylpiperazin-1-yl)methyl)-3-(trifluoromethyl)phenyl)benzamide]: the remaining binding at 1 µM in assay [1] was 76%; in assay [2], 2%; in assay [3] it was 1%; in assay [4], 75%; in assay [5], 64%.

`Cc1ccc(NC(=O)C2(C(=O)Nc3ccc(F)cc3)CC2)cc1C#Cc1cnc2c(Nc3cnn(C(C)C)c3)cccn12` [Example 78]: the remaining binding at 1 µM was 100% in assay [1]; 74% in assay [2]; 92% in assay [3]; 100% in assay [4]; 100% in assay [5].

In the case of `Cc1cn(-c2cc(NC(=O)c3ccc(C)c(C#Cc4cnc5c(Nc6cnn(C)c6)cccn45)c3)cc(C(F)(F)F)c2)cn1` [Example 12, 4-methyl-N-(3-(4-methyl-1H-imidazol-1-yl)-5-(trifluoromethyl)phenyl)-3-((8-((1-methyl-1H-pyrazol-4-yl)amino)imidazo[1,2-a]pyridin-3-yl)ethynyl)benzamide], the remaining binding at 1 µM in assay [1] was 100%; in assay [2] it was 1%; in assay [3], 22%; in assay [4], 100%; in assay [5], 91%.

The values are drawn from patent US10870647B2, “Imidazopyridine derivative, method for preparing same, and pharmaceutical composition containing same as active ingredient for preventing or treating cancer” (DAEGU-GYEONGBUK MEDICAL INNOVATION FOUNDATION, priority 2016, dated 2020).
